Source: US8637484B2, “Modulation of growth hormone receptor expression and insulin-like growth factor expression” (Antisense Therapeutic Limited, priority 2003, dated 2014)
In the oligonucleotide strings, read from the 5' end, every base follows the letter of its sugar. An asterisk marks phosphorothioate; unmarked linkages are phosphodiester. Other units and linkages are bracketed, terminal groups are in braces. A string of capitals states the bases alone. e = 2'-O-(2-methoxyethyl) (MOE); [5mC] = 5-methylcytosine; d = 2'-deoxy (DNA)

Tests used:
[1] = Body weight, growth and organ weights, 1 week pilot study; format: in vivo, mouse; settings: 1 week study; g/total body weight
Description: (§1) Saline, antisense, mismatch control and octreotide samples were prepared, and coded for blinding. Animals were given a subcutaneous dose of saline every second day, and mismatch control or antisense with administration on days 0, 2, 4, 6. Animals were given twice daily doses of 25 μg octreotide. Animals were housed 4 per cage, for the duration of one week. They had access to a pre-determined quantity of standard mouse food and water at all times throughout the experiment. They were housed in a quiet, temperature- and humidity-maintained environment for the entirety of the study. At day 0 and before treatment on each day or second day, the animals had their body weight and food intake measured, enabling the correct dose of agent to be administered. The animals were monitored closely for any changes in fur, skin, eye, locomotion or other changes in behavior. No problems were observed. Every second day from day −7 to day 7 body weight and food intake were measured.
The serum remaining following the insulin-like growth factor-1 assay was isolated and stored at −80° C. The whole liver was removed rapidly for weighing and snap-frozen in labelled aluminum parcels by submersion in liquid-nitrogen. […]
This confirms published results of others. […] Weight was measured in two ways: weight trend (live animal), and final carcass weight. […]

[2] = system: serum insulin-like growth factor-I; test: Serum IGF-I by radioimmunoassay, 1 week pilot study in Balb/C(a) mice; format: in vivo, mouse; settings: for % IGF-I reduction: 30 mg/kg once every 2 days, serum IGF-I at day 7 compared to saline control at day 7
Description: Forty male Balb/C(a) mice weighing 9 to 10 g were placed into cages, 4 animals per cage, and allowed to assimilate into their environment with new littermates ˜1 week prior (Day −7) to the commencement of 1 week study. Mice of this age would be at their maximum growth rate. Their body weights were measured and recorded every second day during this period. When mice weighed 11 g (day −2), a blood sample was collected under anesthesia as described below, and a serum IGF-I assay was performed to determine pre-treatment values and to aid in the assigning of mice to treatment groups in order to reduce animal variability. To obtain the blood sample, the animals were anaesthetized with pentobarbital (50 mg/kg i.p.) and non-fasting blood samples collected exactly 5 minutes later from the retrobulbar plexus through heparinized capillary tubes under light ether anesthesia. The 40 animals were placed into five groups with each group having a similar weight average and similar IGF-I average concentration for the trial.
Animals (n=8/group) were designated to the following five treatment groups:
as §1
On day 7, one day after the last dose of antisense, and/or after the last octreotide dose, the animals were anaesthetized with pentobarbital (50 mg/kg i.p.) and non-fasting blood samples collected exactly 5 minutes later from the retrobulbar plexus through heparinized capillary tubes under light ether anesthesia (as on day −7 and 0).
At day −2 and day 7, serum IGF-I measurement was done by radioimmunoassay. Serum IGF-I level is the most widely used measure of growth hormone biological activity in human therapy. It is used to measure the efficacy of growth hormone antagonist treatments like Trovert, which block cells' responsiveness to excess growth hormone, and dopamine agonists and octreotide somatostatin […] drugs that block growth hormone secretion from the pituitary.

acaaagatccatacctgaga (eA*e[5mC]*eA*eA*eA*dG*dA*dT*d[5mC]*d[5mC]*dA*dT*dA*d[5mC]*d[5mC]*eT*eG*eA*eG*eA; antisense) [ISIS 227446]
liver weight [1]: unaffected | effect on serum IGF-I ([2]; 3 mg/kg once every 2 days, day 7): no effect | IGF-I (ng/ml) Day 7 ([2]; 3 mg/kg sc once every 2 days (days 0, 2, 4, 6)): 129.63 ± 33.76 ng/mL | % IGF-I reduction [2]: 45% | % IGF-I reduction ([2]; listed as ASO): 44.51% | serum IGF-1, % of the control (saline) group ([2]; 30 mg/kg sc every second day for one week): 55% | IGF-I (ng/ml) Day 7 ([2]; 30 mg/kg sc once every 2 days (days 0, 2, 4, 6)): 56.95 ± 10.34 ng/mL | IGF-I (ng/ml) Day −2 ([2]; pre-treatment value of the group given 3 mg/kg sc once every 2 days): 216.23 ± 78.14 ng/mL | IGF-I (ng/ml) Day −2 ([2]; pre-treatment value of the group given 30 mg/kg sc once every 2 days): 181.84 ± 71.32 ng/mL
